Assay results reported in patent US11098027B2, “Therapeutic heterocyclic compounds” (Gilead Sciences, Inc., priority 2018, dated 2021).

Target: T1, IDO1 (Homo sapiens, UniProt P14902)
T1 construct: HeLa cells were treated with a test compound in the presence of IFNγ, which induces IDO1 expression; host or cells: H1-HeLa cells, IDO1 induced with IFNγ
Test: Cell-based (HeLa) assay for measurement of IDO1 inhibition (kynurenine levels in supernatant)
Settings: H1-HeLa cells, IDO1 induced with IFNγ, 48 hour incubation, kynurenine read by absorbance at 480 nm; geometric mean of a minimum of four determinations
Procedure: Example B-1. Cell-Based (HeLa) Assay for Measurement of IDO1 Inhibition
To measure IDO1 inhibition in tissue culture, HeLa cells were treated with a test compound in the presence of IFNγ, which induces IDO1 expression. Following incubation, cell supernatants were assayed for kynurenine levels, an indicator of IDO1 activity.
The following day, the test compounds were added in DMSO (0.5% final) at various concentrations, and IDO1 was inducibly expressed by the addition of 50 uL/well of 50 ng/mL of INFγ (Peprotech #300-02) in cell plating media. As a positive control, 50 uL of the cell plating media without IFNγ was added to several wells. Following a 48 hour incubation, the plates were spun down at 1,200 RPM for 5 min at 10° C. 65 μL/well of the supernatant was then transferred to new 384-well plates (Thermo #262160) that contained 10 uL/well of 30% TCA (Sigma # TO699), and the plates were sealed and incubated at 60° C. for 30 min. The plates were then centrifuged for 15 min at 2,000 RPM at 10° C. 40 μL/well of the supernatant was transferred to new 384-well plates (Thermo #262160) and was reacted with 40 μL/well of 2% (w/v) p-dimethlyaminobenzaldehyde (Sigma #156417) in glacial acetic acid (Sigma #A6283). The reaction was incubated at room temperature for 10 min and absorbance at 480 nm was read using a PerkinElmer Envision plate reader.
Data in Table 1 were normalized based on positive (−IFNγ) and negative (+IFNγ) controls and EC50 values were calculated from the fit of the dose—response curves to a four-parameter equation. All EC50 values represent geometric mean values of a minimum of four determinations. These assays generally produced results within 2-fold of the reported mean

T1 sequence (P14902 whole entry): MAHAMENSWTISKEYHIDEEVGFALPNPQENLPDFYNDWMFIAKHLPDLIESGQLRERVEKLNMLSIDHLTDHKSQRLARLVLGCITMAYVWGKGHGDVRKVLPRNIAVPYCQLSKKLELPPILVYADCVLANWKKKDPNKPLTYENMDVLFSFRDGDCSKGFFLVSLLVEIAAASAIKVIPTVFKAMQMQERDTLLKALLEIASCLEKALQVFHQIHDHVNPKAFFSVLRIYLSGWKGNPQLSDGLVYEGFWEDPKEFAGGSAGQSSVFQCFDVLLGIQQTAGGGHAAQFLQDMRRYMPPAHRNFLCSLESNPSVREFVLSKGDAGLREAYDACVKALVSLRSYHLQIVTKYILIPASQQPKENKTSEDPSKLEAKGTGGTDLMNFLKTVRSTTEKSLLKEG

| Compound | EC50 |
| --- | --- |
| CC1(C)C(=O)N(c2cccnc2)c2nccc(-c3ccc(C(F)(F)F)c(C(=O)Nc4ccc(F)c(F)c4)c3)c21 [Example 32, N-(3,4-difluorophenyl)-5-(3,3-dimethyl-2-oxo-1-(pyridin-3-yl)-2,3-dihydro-1H-pyrrolo[2,3-b]pyridin-4-yl)-2-(trifluoromethyl)benzamide] | 57 nM |
| O=C(Nc1ccc(F)cc1)c1cc(-c2cccc3c2C2(CCC2)C(=O)N3c2ncccn2)ccc1C(F)(F)F [Example 33, N-(4-fluorophenyl)-5-(2′-oxo-1′-(pyrimidin-2-yl)spiro[cyclobutane-1,3′-indolin]-4′-yl)-2-(trifluoromethyl)benzamide] | 92 nM |
| Cc1ccc(-c2cccc3c2C(C)(C)C(=O)N3c2ncccn2)nc1C(=O)Nc1ccc(F)cc1 [Example 41, 6-(3,3-dimethyl-2-oxo-1-(pyrimidin-2-yl)indolin-4-yl)-N-(4-fluorophenyl)-3-methylpicolinamide] | 424 nM |
| CC1(C)C(=O)N(c2ccccn2)c2nccc(-c3cnc(C(F)(F)F)c(C(=O)Nc4ccc(F)c(F)c4)c3)c21 [Example 43, N-(3,4-difluorophenyl)-5-(3,3-dimethyl-2-oxo-1-(pyridin-2-yl)-2,3-dihydro-1H-pyrrolo[2,3-b]pyridin-4-yl)-2-(trifluoromethyl)nicotinamide] | 103 nM |
| CC1(C)C(=O)N(c2ncccn2)c2cccc(-c3ccc(C(F)(F)F)c(C(=O)Nc4ccc(F)cc4)n3)c21 [Example 44] | 113 nM |
| CC1(C)C(=O)N(c2ncccn2)c2cccc(-c3ccc(C(F)(F)F)c(C(=O)Nc4ccnnc4)c3)c21 [Example 46, 5-(3,3-dimethyl-2-oxo-1-(pyrimidin-2-yl)indolin-4-yl)-N-(pyridazin-4-yl)-2-(trifluoromethyl)benzamide] | 283 nM |
| CC1(C)C(=O)N(c2ncccn2)c2cccc(-c3ccc(C(F)(F)F)c(C(=O)Nc4cncnc4)c3)c21 [Example 47, 5-(3,3-dimethyl-2-oxo-1-(pyrimidin-2-yl)indolin-4-yl)-N-(pyrimidin-5-yl)-2-(trifluoromethyl)benzamide] | 810 nM |
| CC1(C)C(=O)N(c2ncccn2)c2cccc(-c3ccc(C(F)(F)F)c(C(=O)Nc4ccncn4)c3)c21 [Example 48, 5-(3,3-dimethyl-2-oxo-1-(pyrimidin-2-yl)indolin-4-yl)-N-(pyrimidin-4-yl)-2-(trifluoromethyl)benzamide] | 73 nM |
| CC1(C)Oc2c(-c3ccc(C(F)(F)F)c(C(=O)Nc4ccc(F)cc4)c3)cccc2N(c2ccccn2)C1=O [Example 52, 5-(2,2-dimethyl-3-oxo-4-(pyridin-2-yl)-3,4-dihydro-2H-benzo[b][1,4]oxazin-8-yl)-N-(4-fluorophenyl)-2-(trifluoromethyl)benzamide] | 491 nM |
| Cc1ccc(-c2cccc3c2C(C)(C)C(=O)N3Cc2ncccn2)cc1C(=O)Nc1ccc(F)cc1 [Example 53, 5-(3,3-dimethyl-2-oxo-1-(pyrimidin-2-ylmethyl)indolin-4-yl)-N-(4-fluorophenyl)-2-methylbenzamide] | 1020 nM |
| CC1(C)Oc2c(-c3ccc(C(F)(F)F)c(C(=O)Nc4ccc(F)cc4)c3)cccc2N(c2ncccn2)C1=O [Example 54, 5-(2,2-dimethyl-3-oxo-4-(pyrimidin-2-yl)-3,4-dihydro-2H-benzo[b][1,4]oxazin-8-yl)-N-(4-fluorophenyl)-2-(trifluoromethyl)benzamide] | 1340 nM |
| CC1(C)Oc2c(-c3ccc(C(F)(F)F)c(C(=O)Nc4ccc(F)cc4)c3)cccc2N(c2cnccn2)C1=O [Example 55, 5-(2,2-dimethyl-3-oxo-4-(pyrazin-2-yl)-3,4-dihydro-2H-benzo[b][1,4]-oxazin-8-yl)-N-(4-fluorophenyl)-2-(trifluoromethyl)benzamide] | 101 nM |
| CC1(C)C(=O)N(c2cccnc2)c2cccc(-c3ccc(C(F)(F)F)c(-c4nc5cc(F)ccc5[nH]4)c3)c21 [Example 56, 4-(3-(5-fluoro-1H-benzo[d]imidazol-2-yl)-4-(trifluoromethyl)phenyl)-3,3-dimethyl-1-(pyridin-3-yl)indolin-2-one] | 3030 nM |

Continued by falling EC50, values first:

| EC50 | Compound |
| --- | --- |
| 57 nM | CC1(C)C(=O)N(c2ncccn2)c2cccc(-c3ccc(C(F)(F)F)c(C(=O)Nc4ccc(F)c(Br)c4)c3)c21 [Example 31, N-(3-bromo-4-fluorophenyl)-5-(3,3-dimethyl-2-oxo-1-(pyrimidin-2-yl)indolin-4-yl)-2-(trifluoromethyl)benzamide] |
| 55 nM | CC1(C)C(=O)N(c2cccc(F)c2F)c2cccc(-c3ccc(C(F)(F)F)c(C(=O)Nc4ccc(F)cc4)c3)c21 [Example 38, 5-(1-(2,3-difluorophenyl)-3,3-dimethyl-2-oxoindolin-4-yl)-N-(4-fluorophenyl)-2-(trifluoromethyl)benzamide] |
| 53 nM | CC1(C)C(=O)N(c2cccnc2)c2cccc(-c3cnc(C(F)(F)F)c(C(=O)Nc4ccccc4)c3)c21 [Example 58, 5-(3,3-dimethyl-2-oxo-1-(pyridin-3-yl)indolin-4-yl)-N-phenyl-2-(trifluoromethyl)nicotinamide] |
| 50 nM | CC1(C)C(=O)N(c2ncccn2)c2nccc(-c3ccc(C(F)(F)F)c(C(=O)Nc4ccc(F)c(F)c4)c3)c21 [Example 50, N-(3,4-difluorophenyl)-5-(3,3-dimethyl-2-oxo-1-(pyrimidin-2-yl)-2,3-dihydro-1H-pyrrolo[2,3-b]pyridin-4-yl)-2-(trifluoromethyl)benzamide] |
| 47 nM | Cc1ccc(-c2cccc3c2oc(=O)n3-c2cccc(F)c2F)cc1C(=O)Nc1ccc(F)cc1 [Example 39, 5-(3-(2,3-difluorophenyl)-2-oxo-2,3-dihydrobenzo[d]oxazol-7-yl)-N-(4-fluorophenyl)-2-methylbenzamide] |
| 41 nM | CC1(C)C(=O)N(c2ccncn2)c2cccc(-c3cnc(C(F)(F)F)c(C(=O)Nc4ccc(F)c(F)c4)c3)c21 [Example 51, N-(3,4-difluorophenyl)-5-(3,3-dimethyl-2-oxo-1-(pyrimidin-4-yl)indolin-4-yl)-2-(trifluoromethyl)nicotinamide] |
| 37 nM | CC1(C)C(=O)N(c2cccnc2)c2nccc(-c3ccc(C(F)(F)F)c(C(=O)Nc4ccccc4)c3)c21 [Example 42, 5-(3,3-dimethyl-2-oxo-1-(pyridin-3-yl)-2,3-dihydro-1H-pyrrolo[2,3-b]pyridin-4-yl)-N-phenyl-2-(trifluoromethyl)benzamide] |
| 33 nM | CC1(C)C(=O)N(c2ccncn2)c2cccc(-c3cnc(C(F)(F)F)c(C(=O)Nc4ccc(F)cc4)c3)c21 [Example 49, 5-(3,3-dimethyl-2-oxo-1-(pyrimidin-4-yl)indolin-4-yl)-N-(4-fluorophenyl)-2-(trifluoromethyl)nicotinamide] |
| 32 nM | Cc1ccc(-c2cccc3c2C(C)(C)C(=O)N3c2ncccn2)c(F)c1C(=O)Nc1ccc(F)cc1 [Example 45, 3-(3,3-dimethyl-2-oxo-1-(pyrimidin-2-yl)indolin-4-yl)-2-fluoro-N-(4-fluorophenyl)-6-methylbenzamide] |
| 31 nM | CC1(C)C(=O)N(c2ncc[nH]2)c2cccc(-c3ccc(C(F)(F)F)c(C(=O)Nc4ccc(F)cc4)c3)c21 [Example 40, 5-(1-(1H-imidazol-2-yl)-3,3-dimethyl-2-oxoindolin-4-yl)-N-(4-fluorophenyl)-2-(trifluoromethyl)benzamide] |
| 28 nM | CC1(C)C(=O)N(c2ncccn2)c2cccc(-c3ccc(C(F)(F)F)c(C(=O)Nc4ccccc4)c3)c21 [Example 37, 5-(3,3-dimethyl-2-oxo-1-(pyrimidin-2-yl)indolin-4-yl)-N-phenyl-2-(trifluoromethyl)benzamide] |
| 26 nM | CC1(C)C(=O)N(c2cccnc2)c2cccc(-c3cnc(C(F)(F)F)c(C(=O)Nc4ccc(F)cc4)c3)c21 [Example 36, 5-(3,3-dimethyl-2-oxo-1-(pyridin-3-yl)indolin-4-yl)-N-(4-fluorophenyl)-2-(trifluoromethyl)nicotinamide] |
| 19 nM | Cc1ccc(-c2cccc3c2oc(=O)n3-c2cccnc2)cc1C(=O)Nc1ccc(F)cc1 [Example 34, N-(4-fluorophenyl)-2-methyl-5-(2-oxo-3-(pyridin-3-yl)-2,3-dihydrobenzo[d]oxazol-7-yl)benzamide] |
| 17 nM | CC1(C)C(=O)N(c2ncccn2)c2cccc(-c3cnc(C(F)(F)F)c(C(=O)Nc4ccc(F)cc4)c3)c21 [Example 35, 5-(3,3-dimethyl-2-oxo-1-(pyrimidin-2-yl)indolin-4-yl)-N-(4-fluorophenyl)-2-(trifluoromethyl)nicotinamide] |
